Laboratory results reported in patent US12391737B2, “Soluble NPY2 receptor agonists” (Boehringer Ingelheim International GmbH, priority 2020, dated 2025).

Tests used:
[1] = target: T1, Human Neuropeptide Y2 Receptor (Homo sapiens, UniProt P49146); experiment: Radioligand binding competition assay (RLB); conditions: Table 3, 125I-PYY(1-36) competition; read-out: Ki
T1 construct: purchased CHEMICON HTS066M
T1 sequence (P49146 1-381): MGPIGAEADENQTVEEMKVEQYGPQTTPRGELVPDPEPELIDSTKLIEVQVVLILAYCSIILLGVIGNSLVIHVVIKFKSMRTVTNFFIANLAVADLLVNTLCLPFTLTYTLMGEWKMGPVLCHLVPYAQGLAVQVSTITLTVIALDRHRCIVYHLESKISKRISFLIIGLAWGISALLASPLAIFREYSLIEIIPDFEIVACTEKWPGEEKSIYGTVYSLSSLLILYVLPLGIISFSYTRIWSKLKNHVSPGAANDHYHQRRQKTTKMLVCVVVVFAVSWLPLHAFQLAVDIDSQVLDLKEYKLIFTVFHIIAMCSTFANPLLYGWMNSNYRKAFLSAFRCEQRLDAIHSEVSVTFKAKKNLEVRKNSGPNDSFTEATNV
How it was run: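 Displacement of radioligand is measured after 2 h at room temperature with receptor membranes in Mg2+/Ca2+ HEPES buffer, pH 7.4. Filter-bound radioactivity is counted and IC50 obtained from curve fitting.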

[2] = target: T2, human NPY1 receptor (hY1R) (Homo sapiens, UniProt P25929); experiment: HTRF cAMP Gi assay, hY1R; assay type: cell-based; conditions: CHO-K1 cells
T2 construct: expressed in transfected cells; host or cells: CHO-K1
T2 sequence (P25929 1-384): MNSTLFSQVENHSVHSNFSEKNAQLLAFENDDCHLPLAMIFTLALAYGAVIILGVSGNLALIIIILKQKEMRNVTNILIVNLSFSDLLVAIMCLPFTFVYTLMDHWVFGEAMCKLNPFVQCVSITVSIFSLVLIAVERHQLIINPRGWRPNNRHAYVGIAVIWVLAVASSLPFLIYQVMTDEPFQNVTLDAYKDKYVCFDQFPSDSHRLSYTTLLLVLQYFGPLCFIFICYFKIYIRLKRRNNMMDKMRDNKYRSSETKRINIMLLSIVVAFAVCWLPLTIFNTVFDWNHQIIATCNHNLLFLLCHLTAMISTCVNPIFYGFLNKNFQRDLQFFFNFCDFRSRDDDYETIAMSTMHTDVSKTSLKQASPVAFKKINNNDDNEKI

[3] = target: T3, human NPY4 receptor (hY4R) (Homo sapiens, UniProt P50391); experiment: HTRF cAMP Gi assay, hY4R; assay type: cell-based; conditions: CHO-K1 cells
T3 construct: expressed in transfected cells; host or cells: CHO-K1
T3 sequence (P50391 whole entry): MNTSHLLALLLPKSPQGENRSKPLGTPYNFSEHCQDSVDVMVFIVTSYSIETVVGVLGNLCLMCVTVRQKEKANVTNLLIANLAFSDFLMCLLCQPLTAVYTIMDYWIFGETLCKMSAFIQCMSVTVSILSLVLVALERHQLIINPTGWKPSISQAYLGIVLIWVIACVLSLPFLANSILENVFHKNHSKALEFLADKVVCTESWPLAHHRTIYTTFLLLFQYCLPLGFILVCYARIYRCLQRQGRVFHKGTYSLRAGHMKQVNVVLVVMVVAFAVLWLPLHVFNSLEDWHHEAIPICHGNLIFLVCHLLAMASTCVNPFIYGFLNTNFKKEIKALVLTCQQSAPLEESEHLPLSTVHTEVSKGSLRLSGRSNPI
Procedure: Briefly, the production of intracellular cAMP will generate a competition between unlabeled cAMP and exogenously added d2-cAMP for anti-cAMP antibodies conjugated to cryptate. CHO-K1 cells stably expressing the human NPY1, NPY2, NPY4 and NPY5 receptors were used with the cells brought to life from a frozen stock immediately before assay performance. 2000 cells per well were applied for all four NPY receptor subtype assays. A 384-well format was used applying a total volume of 20 μl using 5 μl cells, 2.5 μl peptide agonist, 2.5 μl forskolin and 5 μl of each of the fluorophores. […] Concentration-response evaluation of compounds was performed with 11 concentrations of agonist peptides (covering 3 decades). EC50 values were calculated by nonlinear regression using sigmoid concentration-response with variable slope.

[4] = Solubility determination; conditions: for Sol6: pH 6; for Sol7: pH 7
How it was run: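 First, TFA-salt peptide was added to 0.1 M sodium diphosphate (pH 6.4 or 7.0) to 10 mg/ml and shaken 2 h at room temperature. Next, insoluble material was filtered off. Finally, filtrate and control, each 1 mg/ml in 50% acetonitrile, were compared by reversed-phase chromatography.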

[5] = target: T4, human NPY2 receptor (hY2R) (Homo sapiens, UniProt P49146); experiment: HTRF cAMP Gi assay, hY2R
T4 sequence (P49146 1-381): T1 sequence (P49146 1-381)
Source text: The Homogenous Time Resolved fluorescence (HTRF) technology optimized for Gi coupled receptors has thoroughly been described in Cisbio cAMP Gi kit manual. Briefly, the production of intracellular cAMP will generate a competition between unlabeled cAMP and exogenously added d2-cAMP for anti-cAMP antibodies conjugated to cryptate. CHO-K1 cells stably expressing the human NPY1, NPY2, NPY4 and NPY5 receptors were used with the cells brought to life from a frozen stock immediately before assay performance. 2000 cells per well were applied for all four NPY receptor subtype assays. A 384-well format was used applying a total volume of 20 μl using 5 μl cells, 2.5 μl peptide agonist, 2.5 μl forskolin and 5 μl of each of the fluorophores. […] Concentration-response evaluation of compounds was performed with 11 concentrations of agonist peptides (covering 3 decades). EC50 values were calculated by nonlinear regression using sigmoid concentration-response with variable slope.

[6] = target: T5, human NPY5 receptor (hY5R) (Homo sapiens, UniProt Q15761); experiment: HTRF cAMP Gi assay, hY5R
T5 sequence (Q15761 1-445): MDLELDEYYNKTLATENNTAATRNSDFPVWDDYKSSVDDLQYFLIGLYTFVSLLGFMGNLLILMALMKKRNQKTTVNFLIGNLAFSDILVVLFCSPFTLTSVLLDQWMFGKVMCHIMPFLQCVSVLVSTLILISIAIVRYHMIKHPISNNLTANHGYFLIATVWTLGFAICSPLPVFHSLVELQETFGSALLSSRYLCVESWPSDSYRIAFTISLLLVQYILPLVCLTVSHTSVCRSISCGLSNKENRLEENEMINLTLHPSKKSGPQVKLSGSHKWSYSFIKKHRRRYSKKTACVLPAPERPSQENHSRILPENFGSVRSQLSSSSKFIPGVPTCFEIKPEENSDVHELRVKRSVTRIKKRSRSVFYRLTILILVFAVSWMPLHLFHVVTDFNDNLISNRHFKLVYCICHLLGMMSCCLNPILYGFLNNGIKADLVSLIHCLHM

| Ki [1] [nM] | EC50 [2] [nM] | EC50 [3] [nM] | Sol6 [4] [mg/mL] | Sol7 [4] [mg/mL] | EC50 [5] [nM] | EC50 [6] [nM] | Compound |
| --- | --- | --- | --- | --- | --- | --- | --- |
| 3.07 | > 5000 | > 5000 | 8.7 | 9.6 | 0.352 | > 5000 | CC(C)CC(=O)N[C@@H](C)C(=O)N1CCC[C@H]1C(=O)N[C@@H](CCC(=O)O)C(=O)N[C@@H](CCCCNC(=O)CCCCCNC(=O)CC[C@H](NC(=O)CCCCCCCCCCCCCCCCC(=O)O)C(=O)O)C(=O)N1CCC[C@H]1C(=O)N[C@@H](CCC(=O)O)C(=O)N[C@@H](CCC(=O)O)C(=O)N[C@@H](CC(=O)O)C(=O)N[C@@H](C)C(=O)N[C@@H](CCC(=O)O)C(=O)N1CCC[C@H]1C(=O)N[C@@H](CCC(=O)O)C(=O)N[C@@H](CCC(=O)O)C(=O)N[C@H](C(=O)N[C@@H](CCC(N)=O)C(=O)N[C@@H](CCCNC(=N)N)C(=O)N[C@@H](Cc1ccc(O)cc1)C(=O)N[C@@H](Cc1ccc(O)cc1)C(=O)N[C@H](C(=O)N[C@@H](CO)C(=O)N[C@@H](CC(C)C)C(=O)N[C@@H](CCCNC(=N)N)C(=O)N[C@@H](Cc1c[nH]cn1)C(=O)N[C@@H](Cc1ccc(O)cc1)C(=O)N[C@@H](Cc1ccc(O)cc1)C(=O)N[C@@H](CC(N)=O)C(=O)N[C@@H](Cc1c[nH]c2ccccc12)C(=O)N[C@@H](CC(C)C)C(=O)N[C@H](C(=O)N[C@@H](CCCNC(=N)N)C(=O)N[C@@H](CCC(N)=O)C(=O)N[C@@H](CCCNC(=N)N)C(=O)N[C@@H](Cc1ccc(O)cc1)C(N)=O)[C@@H](C)O)C(C)C)C(C)C [Compound 53, N{alpha-4}-(3-methylbutanoyl)-N{epsilon-7}-(6-[(4S)-4-carboxy-4-(17-carboxyheptadecanamido)butanamido]hexanoyl)-[4A,7K,9E,13E,17V,18Q,22V,28Y,30W,31L]-hPYY(4-36)] |
| 0.78 | > 5000 | > 5000 | 8.2 | 8.2 | 0.197 | > 5000 | CC[C@H](C)[C@H](NC(=O)[C@H](Cc1ccc(O)cc1)NC(=O)[C@H](Cc1ccc(O)cc1)NC(=O)[C@H](CCCNC(=N)N)NC(=O)[C@H](CCC(N)=O)NC(=O)[C@@H](NC(=O)[C@H](CCC(=O)O)NC(=O)[C@H](CCC(=O)O)NC(=O)[C@@H]1CCCN1C(=O)[C@H](CO)NC(=O)[C@H](C)NC(=O)[C@H](CC(=O)O)NC(=O)[C@H](CCC(=O)O)NC(=O)[C@H](CCC(=O)O)NC(=O)[C@@H]1CCCN1C(=O)[C@H](CCCCNC(=O)CCCCCNC(=O)CC[C@H](NC(=O)CCCCCCCCCCCCCCCCC(=O)O)C(=O)O)NC(=O)[C@H](C)NC(=O)[C@@H]1CCCN1C(=O)[C@H](C)NC(=O)CC(C)C)[C@@H](C)CC)C(=O)N[C@@H](CO)C(=O)N[C@@H](CC(C)C)C(=O)N[C@@H](CCCNC(=N)N)C(=O)N[C@@H](Cc1c[nH]cn1)C(=O)N[C@@H](Cc1ccc(O)cc1)C(=O)N[C@@H](Cc1ccc(O)cc1)C(=O)N[C@@H](CC(N)=O)C(=O)N[C@@H](Cc1c[nH]c2ccccc12)C(=O)N[C@@H](CC(C)C)C(=O)N[C@H](C(=O)N[C@@H](CCCNC(=N)N)C(=O)N[C@@H](CCC(N)=O)C(=O)N[C@@H](CCCNC(=N)N)C(=O)N[C@@H](Cc1ccc(O)cc1)C(N)=O)[C@@H](C)O [Compound 195, N{alpha-4}-(3-methylbutanoyl)-N{epsilon-7}-(6-[(4S)-4-carboxy-4-(17-carboxyheptadecanamido)butanamido]hexanoyl)-[4A,6A,7K,9E,17I,18Q,22I,28Y,30W,31L]-hPYY(4-36)] |
| 3.57 | – | – | 8.4 | 9.8 | 0.086 | > 5000 | CC(C)CC(=O)N[C@@H](C)C(=O)N1CCC[C@H]1C(=O)N[C@@H](CCC(=O)O)C(=O)N[C@@H](CCCCNC(=O)CCCCCNC(=O)CC[C@H](NC(=O)CCCCCCCCCCCCCCCCC(=O)O)C(=O)O)C(=O)N1CCC[C@H]1C(=O)N[C@@H](CCC(=O)O)C(=O)N[C@@H](C)C(=O)N[C@@H](CC(=O)O)C(=O)N[C@@H](C)C(=O)N[C@@H](CO)C(=O)N1CCC[C@H]1C(=O)N[C@@H](CCC(=O)O)C(=O)N[C@@H](CCC(=O)O)C(=O)N[C@@H](CC(C)C)C(=O)N[C@@H](CCC(N)=O)C(=O)N[C@@H](CCCNC(=N)N)C(=O)N[C@@H](Cc1ccc(O)cc1)C(=O)N[C@@H](Cc1ccc(O)cc1)C(=O)N[C@H](C(=O)N[C@@H](CO)C(=O)N[C@@H](CC(C)C)C(=O)N[C@@H](CCCNC(=N)N)C(=O)N[C@@H](Cc1c[nH]cn1)C(=O)N[C@@H](Cc1ccc(O)cc1)C(=O)N[C@@H](Cc1ccc(O)cc1)C(=O)N[C@@H](CC(N)=O)C(=O)N[C@@H](Cc1c[nH]c2ccccc12)C(=O)N[C@@H](CC(C)C)C(=O)N[C@H](C(=O)N[C@@H](CCCNC(=N)N)C(=O)N[C@@H](CCC(N)=O)C(=O)N[C@@H](CCCNC(=N)N)C(=O)N[C@@H](Cc1ccc(O)cc1)C(N)=O)[C@@H](C)O)C(C)C [Compound 196, N{alpha-4}-(3-methylbutanoyl)-N{epsilon-7}-(6-[(4S)-4-carboxy-4-(17-carboxyheptadecanamido)butanamido]hexanoyl)-[4A,7K,9E,10A,18Q,22V,28Y,30W,31L]-hPYY(4-36)] |
| 2.96 | > 5000 | > 5000 | >10.0 | >10.0 | 0.352 | > 5000 | CC[C@H](C)[C@H](NC(=O)[C@H](CCC(=O)O)NC(=O)[C@H](CCC(=O)O)NC(=O)[C@H](CCC(=O)O)NC(=O)[C@H](CO)NC(=O)[C@H](C)NC(=O)[C@H](CC(=O)O)NC(=O)[C@H](CCC(=O)O)NC(=O)[C@H](CCC(=O)O)NC(=O)[C@@H]1CCCN1C(=O)[C@H](CCCCNC(=O)CCCCCNC(=O)CC[C@H](NC(=O)CCCCCCCCCCCCCCCCC(=O)O)C(=O)O)NC(=O)[C@H](CCC(=O)O)NC(=O)[C@@H]1CCCN1C(=O)[C@H](C)NC(=O)CC(C)C)C(=O)N[C@@H](CCC(N)=O)C(=O)N[C@@H](CCCNC(=N)N)C(=O)N[C@@H](Cc1ccc(O)cc1)C(=O)N[C@@H](Cc1ccc(O)cc1)C(=O)N[C@H](C(=O)N[C@@H](CO)C(=O)N[C@@H](CC(C)C)C(=O)N[C@@H](CCCNC(=N)N)C(=O)N[C@@H](Cc1c[nH]cn1)C(=O)N[C@@H](Cc1ccc(O)cc1)C(=O)N[C@@H](Cc1ccc(O)cc1)C(=O)N[C@@H](CC(N)=O)C(=O)N[C@@H](Cc1c[nH]c2ccccc12)C(=O)N[C@@H](CC(C)C)C(=O)N[C@H](C(=O)N[C@@H](CCCNC(=N)N)C(=O)N[C@@H](CCC(N)=O)C(=O)N[C@@H](CCCNC(=N)N)C(=O)N[C@@H](Cc1ccc(O)cc1)C(N)=O)[C@@H](C)O)C(C)C [Compound 55, N{alpha-4}-(3-methylbutanoyl)-N{epsilon-7}-(6-[(4S)-4-carboxy-4-(17-carboxyheptadecanamido)butanamido]hexanoyl)-[4A,7K,9E,14E,17I,18Q,22V,28Y,30W,31L]-hPYY(4-36)] |
